Experimental data from patent publication US6642392B1 (priority 1997, dated 2003).
Like-named read-outs stand apart in the source and are kept apart here.

Tests used:
Format in all cases: in vivo
Puccinia recondita = assay: Test B: wheat leaf rust, preventive spray on wheat seedlings; conditions: for Test B disease control rating: wheat leaf rust; for Test B disease control rating (100 = 100% disease control, 0 = no disease control): wheat seedlings sprayed to run-off, inoculated the following day, rating relative to controls, unmarked compounds (standard test rate)
Procedure, shortened: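 Wheat seedlings were sprayed to run-off with compound (3% acetone, 250 ppm Trem 014), then inoculated with P. recondita spores the next day. They were held 24 h saturated at 20 °C, then 6 days at 20 °C. Ratings are 0–100% disease control versus controls.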

Phytophthora infestans = conditions: for Test D disease control rating: tomato late blight; for Test D disease control rating (100 = 100% disease control, 0 = no disease control): tomato seedlings sprayed to run-off, inoculated the following day, rating relative to controls, unmarked compounds (standard test rate)
Pyricularia oryzae = conditions: for Test C disease control rating: rice blast; for Test C disease control rating (100 = 100% disease control, 0 = no disease control): rice seedlings sprayed to run-off, inoculated the following day, rating relative to controls, unmarked compounds (standard test rate)
[1] = test system: Eiysiphe graminis f. sp. tritici; assay: Test A: wheat powdery mildew, preventive spray on wheat seedlings; conditions: for Test A disease control rating: wheat powdery mildew; for Test A disease control rating (100 = 100% disease control, 0 = no disease control): wheat seedlings sprayed to run-off, inoculated the following day, rating relative to controls, unmarked compounds (standard test rate)
Procedure, shortened: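 Compounds (3% acetone, 250 ppm Trem 014) sprayed to run-off on wheat seedlings, inoculated next day with spore dust. Incubated 7 days at 20° C before disease rating, 0–100% control relative to untreated controls.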

Botrytis cinerea = assay: Test E: gray mold, preventive spray on cucumber seedlings; conditions: for Test E disease control rating: gray mold on cucumber; for Test E disease control rating (100 = 100% disease control, 0 = no disease control): cucumber seedlings sprayed to run-off, inoculated the following day, rating relative to controls, unmarked compounds (standard test rate)
Procedure, shortened: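 Compounds in 3% acetone were suspended with 250 ppm Trem 014 surfactant and sprayed to run-off on cucumber seedlings. B. cinerea spores were inoculated next day, then 48 h saturated humidity at 20° C and 5 days at 20° C. Disease control rated 0–100% versus controls.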

[2] = 100 = 100% disease control, 0 = no control, unmarked entries (standard test concentration)
[3] = 100 = 100% disease control, 0 = no control relative to controls, unmarked entries (standard test concentration)

| SMILES | Test B disease control rating (Puccinia recondita; [2]) [%] | Test D disease control rating (Phytophthora infestans; [2]) [%] | Test C disease control rating (Pyricularia oryzae; [2]) [%] | Test A disease control rating [1, 3] [%] | Test E disease control rating (Botrytis cinerea; [2]) [%] | other results |
| --- | --- | --- | --- | --- | --- | --- |
| C[C@H](COc1ccc(Br)cc1)NC(=O)C(C#N)C(C)(C)C (single isomer, unassigned) [10d] | 0 | 35 | 74 | 77 | 45 |  |
| CCC1(C(=O)NC(C)COc2cc(F)c(F)cc2C#N)C(C)C1(Cl)Cl (mixture of isomers) [compound 257] |  |  |  |  |  | Test B disease control rating (100 = 100% disease control, 0 = no disease control) (Puccinia recondita): 0%; Test D disease control rating (100 = 100% disease control, 0 = no disease control) (Phytophthora infestans): 0%; Test C disease control rating (100 = 100% disease control, 0 = no disease control) (Pyricularia oryzae): 0%; Test A disease control rating (100 = 100% disease control, 0 = no disease control) [1]: 0%; Test E disease control rating (100 = 100% disease control, 0 = no disease control) (Botrytis cinerea): 0% |
| Cc1c(Cl)cc(C#N)n1OCC(C)NC(=O)C(C#N)C(C)(C)C (mixture of isomers) [compound 49] | 0 | 0 | 0 | 0 | 0 |  |
| C[C@H](COc1cccc(Cl)c1Cl)NC(=O)C(C#N)C(C)(C)C (single isomer, unassigned) [31b] | 0 | 0 | 94 | 0 | 0 |  |
| C#CC(C)(C=C)C(C#N)C(=O)NC(C)COc1cc(F)ccc1F (mixture of isomers) [compound 301] |  |  |  |  |  | Test B disease control rating (100 = 100% disease control, 0 = no disease control) (Puccinia recondita): 0%; Test D disease control rating (100 = 100% disease control, 0 = no disease control) (Phytophthora infestans): 24%; Test C disease control rating (100 = 100% disease control, 0 = no disease control) (Pyricularia oryzae): 100%; Test A disease control rating (100 = 100% disease control, 0 = no disease control) [1]: 62%; Test E disease control rating (100 = 100% disease control, 0 = no disease control) (Botrytis cinerea): 0% |
| C[C@H](COc1ccc(F)cc1Br)NC(=O)C(C#N)C(C)(C)C (single isomer, unassigned) [165b] | 0 | 23 | 94 | 95 | 95 |  |
| Cc1c(Cl)cc(C#N)n1OCC(C)NC(=O)C(C#N)C(C)C(C)(C)C (mixture of isomers) [71b] |  |  |  |  |  | Test B disease control rating (Puccinia recondita; tested at 100 ppm): 0%; Test D disease control rating (Phytophthora infestans; tested at 100 ppm): 19%; Test C disease control rating (Pyricularia oryzae; tested at 100 ppm): 0%; Test A disease control rating ([1]; tested at 100 ppm): 0%; Test E disease control rating (Botrytis cinerea; tested at 100 ppm): 0% |
| CCC1(C(=O)NC(C)COc2cccc(F)c2C#N)C(C)C1(Cl)Cl (mixture of isomers) [compound 130] | 0 | 2 | 32 | 0 | 0 |  |
| C=CCc1cccc(C)c1OCC(C)NC(=O)C1(CC)C(C)C1(Cl)Cl (centres unmarked) [compound 119] | 0 | 0 | 32 | 31 | 0 |  |
| CCC1(C(=O)NC(C)COn2c(C#N)cc(Cl)c2C)C(C)C1(Cl)Cl (mixture of isomers) [140b] | 28 | 38 | 74 | 63 | 0 |  |
| Cc1c(Cl)cc(C#N)n1CCC(C)NC(=O)C(C#N)C(C)C(C)(C)C (mixture of isomers) [compound 72] | 0 | 0 | 91 | 0 | 0 |  |
| C[C@H](COc1ccc(Cl)cc1F)NC(=O)C(C#N)C(C)(C)C (single isomer, unassigned) [36a] | 27 | 89 | 99 | 0 | 0 |  |
| CC(COc1ccccc1I)NC(=O)C(C#N)C(C)(C)C (mixture of isomers) [11a] | 0 | 0 | 97 | 77 | 82 |  |
| C[C@H](COc1cccc(F)c1F)NC(=O)C(C#N)C(C)(C)C (single isomer, unassigned) [26b] | 68 | 81 | 100 | 38 | 0 |  |
| C[C@H](COc1ccccc1Br)NC(=O)C(C#N)C(C)(C)C (single isomer, unassigned) [8b] | 0 | 89 | 100 | 37 | 47 |  |
| CCC1(C(=O)NC(C)COc2ccc(F)cc2F)C(C)C1(Cl)Cl (centres unmarked) [compound 106] |  |  |  |  |  | Test B disease control rating (Puccinia recondita; tested at 40 ppm): 0%; Test D disease control rating (Phytophthora infestans; tested at 40 ppm): 19%; Test C disease control rating (Pyricularia oryzae; tested at 40 ppm): 97%; Test A disease control rating ([1]; tested at 40 ppm): 84%; Test E disease control rating (Botrytis cinerea; tested at 40 ppm): 0% |
| CC(COc1ccccc1C#N)NC(=O)C(C#N)C(C)C(C)(C)C (mixture of isomers) [compound 60] |  |  |  |  |  | Test B disease control rating (Puccinia recondita; tested at 40 ppm): 0%; Test D disease control rating (Phytophthora infestans; tested at 40 ppm): 0%; Test C disease control rating (Pyricularia oryzae; tested at 40 ppm): 0%; Test A disease control rating ([1]; tested at 40 ppm): 91%; Test E disease control rating (Botrytis cinerea; tested at 40 ppm): 0% |
| CC(COc1ccccc1I)NC(=O)C(C#N)C(C)(C)C (mixture of isomers) [11b] | 85 | 23 | 99 | 77 | 0 |  |
| C=CC(C)(C)C(C#N)C(=O)NC(C)COc1cc(C)ccc1F (mixture of isomers) [compound 282] |  |  |  |  |  | Test B disease control rating (100 = 100% disease control, 0 = no disease control) (Puccinia recondita): 0%; Test D disease control rating (100 = 100% disease control, 0 = no disease control) (Phytophthora infestans): 24%; Test C disease control rating (100 = 100% disease control, 0 = no disease control) (Pyricularia oryzae): 100%; Test A disease control rating (100 = 100% disease control, 0 = no disease control) [1]: 0%; Test E disease control rating (100 = 100% disease control, 0 = no disease control) (Botrytis cinerea): 0% |
| CC(COc1ccc(Br)cc1F)NC(=O)C(C#N)C(C)(C)C (mixture of isomers) [compound 38] | 28 | 0 | 53 | 0 | 22 |  |
| CCC1(C(=O)NC(C)COc2cc(OC(F)F)ccc2C#N)C(C)C1(Cl)Cl (mixture of isomers) [compound 256] |  |  |  |  |  | Test B disease control rating (100 = 100% disease control, 0 = no disease control) (Puccinia recondita): 0%; Test D disease control rating (100 = 100% disease control, 0 = no disease control) (Phytophthora infestans): 0%; Test C disease control rating (100 = 100% disease control, 0 = no disease control) (Pyricularia oryzae): 0%; Test A disease control rating (100 = 100% disease control, 0 = no disease control) [1]: 56%; Test E disease control rating (100 = 100% disease control, 0 = no disease control) (Botrytis cinerea): 0% |
| CCC1(C(=O)NC(C)COc2cc(F)cc(F)c2Cl)C(C)C1(Cl)Cl (centres unmarked) [compound 123] |  |  |  |  |  | Test B disease control rating (Puccinia recondita; tested at 40 ppm): 0%; Test D disease control rating (Phytophthora infestans; tested at 40 ppm): 0%; Test C disease control rating (Pyricularia oryzae; tested at 40 ppm): 53%; Test A disease control rating ([1]; tested at 40 ppm): 90%; Test E disease control rating (Botrytis cinerea; tested at 40 ppm): 0% |
